Laboratory results taken from patent US20260166021A1, “POLYMORPHIC FORMS OF A SOLUBLE EPOXIDE HYDROLASE INHIBITOR AND FORMULATIONS THEREOF” (EicOsis, LLC, priority 2022, published 2026).

Columns and labels:
Format in all cases: physicochemical
[1] = Thermal stress studies at 60° C. (XRD, HPLC); conditions: for Day 1 % AUC / Day 7 % AUC / Initial % AUC: HPLC; for Initial % AUC: before thermal stress
Method: Briefly, 20 mg of solid Form A, B, C, D, E, F, G, and I were weighed into 7 mL glass vials. The vials were covered with tissue and stored in ovens set to 60° C. and ambient pressure. Following 1 and 7 days incubation, solid was collected for XRD analysis.
As shown in these figures, Forms B and C converted to Forms D and A, respectively, while the other forms remained unchanged.
The starting materials, intermediates (1 day of thermal stress), and products (7 days of thermal stress) were analyzed by H PLC. Representative chromatograms from the Form D thermal stress analyses are shown in FIGS. 81-83 (starting material, 1 day, and 7 day samples, respectively).

[2] = Differential scanning calorimetry (DSC): heat of fusion, thermal events; conditions: for thermodynamic stability (from heat of fusion) / Heat of fusion: DSC; for thermodynamic stability (from heat of fusion): TABLE 10; for Heat of fusion: scaled-up polymorphs, measured during conversion from Form C
Method: Differential scanning calorimetry analyses were performed on each sample “as is.” Unless otherwise specified, samples were weighed in an aluminum pan, covered with a pierced lid, and then crimped and analyzed from 30-300° C. ramped at 10° C./min.
The DSC data were used to determine the heat of fusion for Forms A, B, D, and F, based on their heats of fusion as measured during conversion from Form C.

[3] = Thermal gravimetric analysis (TGA)
Method: Thermal gravimetric analyses were performed on each sample “as is.” Unless otherwise noted, samples were weighed in an alumina crucible and analyzed from 30-350° C. at 10° C./min.
Form C weight loss at 39° C.-50° C. likely reflected methanol loss.

[4] = Competitive slurry experiments (solvent-mediated polymorph transformation, XRD); conditions: room temperature, 1 and 7 days
Method: Polymorph stability and interconversions were analyzed with competitive slurry experiments. The competitive slurry (solvent-mediated transformation) experiments were performed on Forms A, B, D, E, F, G, and I generated through scaled-up crystallization (summarized in TABLE 11). […] The suspensions were aliquoted at one day and seven days and filtered to isolate the solids. Remaining solid was analyzed by XRD without drying.
In FIG. 66, the second spectrum from the top corresponds to Form E. These XRD data confirmed that Patterns C, K, and D were afforded in these solvents.
In order to further confirm the rank of stability order of the selected forms and extend the temperature range of stability relationship up to 70° C. covering potential API process conditions, binary form slurries were conducted with starting mixtures of (1) Forms A and D, and (2) Forms D and E. The resultant polymorphs were characterized with XRD after 1 and 7 days, the results of which analyses are shown in FIGURE S 67-68 and summarized in TABLE 13. Pattern D stood out from both binary mixture slurries of A & D and of D & E after seven-day stirring at the elevated temperature.
Additional single form slurry experiments were conducted on Forms A, D, and E in either water or heptane at room temperature. […] In agreement with prior competitive slurry experiments, Form D was stable at room temperature in n-heptane. Pattern E was obtained from slurries starting with Forms A and E in n-heptane. As expected, Form C was formed from the Pattern E slurry in water.

Compound: CC[C@H](C)C(=O)N1CCC(NC(=O)Nc2ccc(OC(F)(F)F)c(F)c2)CC1 [Form B, (S)-1-(3-fluoro-4-(trifluoromethoxy)phenyl)-3-(1-(2-methylbutanoyl)piperidin-4-yl)urea]
- conversion to Form D ([1]; 60° C., following one day of incubation): 100%
- DSC Thermal Events, Endo: melting of pattern B [2]: 146 °C melting of pattern B
- DSC Thermal Events, Endo: melting of pattern D [2]: 141 °C melting of pattern D
- thermodynamic stability (from heat of fusion) [2]: thermodynamically stable
- Heat of fusion ([2]; listed as B): 53.14
- TGA: wt change ([3]; below 150° C.): No wt change below

Compound: CC[C@H](C)C(=O)N1CCC(NC(=O)Nc2ccc(OC(F)(F)F)c(F)c2)CC1 [E]
- DSC Thermal Events, Endo: dehydration of bound water of pattern E [2]: 121 °C dehydration of bound water of
- DSC Thermal Events, Endo: melting of pattern D [2]: 142 °C melting of pattern D
- DSC Thermal Events, Endo: melting of pattern F [2]: 148 °C melting of pattern F
- DSC Thermal Events, Exo: crystallization of pattern D [2]: 126 °C crystallization of pattern D
- DSC Thermal Events, Exo: crystallization of pattern F [2]: 144 °C crystallization of pattern F
- TGA: wt change ([3]; at range 116° C.-119° C.): 4.7% wt change at

Compound: CC[C@H](C)C(=O)N1CCC(NC(=O)Nc2ccc(OC(F)(F)F)c(F)c2)CC1 [C]
- DSC Thermal Events, Endo: dehydration of bound water of pattern C [2]: 73° C.: dehydration of bound water of
- DSC Thermal Events, Endo: melting of pattern A [2]: 109 °C melting of pattern A
- DSC Thermal Events, Endo: melting of pattern F [2]: 147 °C melting of pattern F
- DSC Thermal Events, Exo: crystallization of pattern F [2]: 114 °C crystallization of pattern F
- TGA: wt change ([3]; at range 39° C.-50° C.): 1.4% wt change at

Compound: CC[C@H](C)C(=O)N1CCC(NC(=O)Nc2ccc(OC(F)(F)F)c(F)c2)CC1 [Lot 3]
- Endotherm (likely dehydration of bound water) ([2]; DSC thermogram of lot): 84 °C
- Endotherm (melting of Form A) ([2]; DSC thermogram of lot): 111 °C (melting of Form A),
- Exotherm (crystallization of Form B) ([2]; DSC thermogram of lot): 117 °C (crystallization of

Compound: CC[C@H](C)C(=O)N1CCC(NC(=O)Nc2ccc(OC(F)(F)F)c(F)c2)CC1 [I]
- DSC Thermal Events, Endo: melting of pattern I [2]: 144 °C melting of pattern I

Compound: CC[C@H](C)C(=O)N1CCC(NC(=O)Nc2ccc(OC(F)(F)F)c(F)c2)CC1 [H]
- DSC Thermal Events, Endo: dehydration of bound water of pattern C [2]: 83° C.: dehydration of bound water of
- DSC Thermal Events, Endo: desolvation of pattern H [2]: 129 °C desolvation of pattern H
- DSC Thermal Events, Endo: melting of pattern A [2]: 140 °C melting of pattern A
- DSC Thermal Events, Endo: melting of pattern F [2]: 148 °C melting of pattern F
- DSC Thermal Events, Exo: crystallization of pattern D [2]: 133 °C crystallization of pattern D
- DSC Thermal Events, Exo: crystallization of pattern F [2]: 142 °C crystallization of patter F
- TGA: wt change ([3]; at 83° C.): No detectable wt
- TGA: wt change ([3]; at range […] C.-126° C.): 7.2% wt change at

Compound: CC[C@H](C)C(=O)N1CCC(NC(=O)Nc2ccc(OC(F)(F)F)c(F)c2)CC1 [L]
- DSC Thermal Events, Endo: melting of pattern D [2]: 141 °C melting of pattern D
- DSC Thermal Events, Endo: melting of pattern F [2]: 148 °C melting of pattern F
- DSC Thermal Events, Exo: crystallization of pattern D [2]: 138 °C crystallization of pattern D
- DSC Thermal Events, Exo: crystallization of pattern F [2]: 143 °C crystallization of patter F
- TGA: wt change ([3]; at range 107° C.-[…] C.): 0.4% wt change at
- TGA: wt change ([3]; at range […] C.-135° C.): 0.3% wt change at

Compound: CC[C@H](C)C(=O)N1CCC(NC(=O)Nc2ccc(OC(F)(F)F)c(F)c2)CC1 [Form A, (S)-1-(3-fluoro-4-(trifluoromethoxy)phenyl)-3-(1-(2-methylbutanoyl)piperidin-4-yl)urea]
- single form slurry in n-heptane: resultant polymorph [4]: Pattern E
- Day 1 % AUC ([1]; 60° C.): 100%
- Day 7 % AUC ([1]; 60° C.): 100%
- Initial % AUC [1]: 100%
- DSC Thermal Events, Endo: melting of pattern A [2]: 113 °C melting of pattern A
- DSC Thermal Events, Endo: melting of pattern D [2]: 141 °C melting of pattern D (shoulder)
- DSC Thermal Events, Endo: melting of pattern F [2]: 148 °C meting of patter F
- DSC Thermal Events, Exo: crystallization of pattern D [2]: 127 °C crystallization of pattern D
- DSC Thermal Events, Exo: crystallization of pattern F [2]: 117 °C crystallization of pattern
- thermodynamic stability (from heat of fusion) [2]: thermodynamically stable
- Heat of fusion [2]: 29.73
- TGA: wt change ([3]; below 150° C.): No wt change below

Compound: CC[C@H](C)C(=O)N1CCC(NC(=O)Nc2ccc(OC(F)(F)F)c(F)c2)CC1 [J]
- DSC Thermal Events, Endo: dehydration of bound water/desolvation of pattern J or another unknown pattern [2]: 129 °C dehydration of bound
- DSC Thermal Events, Endo: melting of pattern B [2]: 146 °C melting of pattern B
- DSC Thermal Events, Endo: melting of pattern F [2]: 149 °C melting of pattern F
- DSC Thermal Events, Endo: melting of unknown pattern [2]: 140 °C melting of unknown
- DSC Thermal Events, Exo: crystallization of unknown pattern [2]: 103 °C crystallization of unknown
- DSC Thermal Events, Endo: dehydration of bound water/desolvation of pattern J ([2]; major peak with a shoulder): 91 °C dehydration of bound
- TGA: wt change ([3]; at range 75° C.-82° C.): 3.7% wt change at
- TGA: wt change ([3]; at range 116° C.-[…] C.): 4.6% wt change at

Compound: CC[C@H](C)C(=O)N1CCC(NC(=O)Nc2ccc(OC(F)(F)F)c(F)c2)CC1 [Form F, (S)-1-(3-fluoro-4-(trifluoromethoxy)phenyl)-3-(1-(2-methylbutanoyl)piperidin-4-yl)urea]
- Day 1 % AUC ([1]; 60° C.): 100%
- Day 7 % AUC ([1]; 60° C.): 100%
- Initial % AUC [1]: 100%
- DSC Thermal Events, Endo: melting of pattern F [2]: 150 °C melting of pattern F
- Heat of fusion ([2]; listed as F): 57.06

Compound: CC[C@H](C)C(=O)N1CCC(NC(=O)Nc2ccc(OC(F)(F)F)c(F)c2)CC1 [K]
- DSC Thermal Events, Endo: dehydration of bound water/desolvation of pattern K [2]: 127 °C dehydration of bound water/
- DSC Thermal Events, Endo: melting of pattern D [2]: 142 °C melting of pattern D
- DSC Thermal Events, Endo: melting of pattern F [2]: 148 °C melting of pattern F
- DSC Thermal Events, Exo: crystallization of pattern D [2]: 130 °C crystallization of pattern D
- TGA: wt change ([3]; at range 120° C.-[…] C.): 5.0% wt change at

Compound: CC[C@H](C)C(=O)N1CCC(NC(=O)Nc2ccc(OC(F)(F)F)c(F)c2)CC1 [G]
- Day 7 XRD ([1]; 60° C., ambient pressure): G/L
- DSC Thermal Events, Endo: melting of pattern G [2]: 143 °C melting of pattern G

Compound: CC[C@H](C)C(=O)N1CCC(NC(=O)Nc2ccc(OC(F)(F)F)c(F)c2)CC1 [Form E, (S)-1-(3-fluoro-4-(trifluoromethoxy)phenyl)-3-(1-(2-methylbutanoyl)piperidin-4-yl)urea]
- single form slurry in n-heptane: resultant polymorph [4]: Pattern E
- single form slurry in water: resultant polymorph ([4]; water): Form C
